The values that follow come from ChEMBL document CHEMBL1137289, “Structure-activity relationships of novel antibacterial translation inhibitors: 3,5-diamino-piperidinyl triazines” (Bioorg Med Chem Lett, 2006).

By IC50 is commonly meant the concentration needed to halve the response being measured. The low end stands for higher potency, the high end for lower potency.

Assay [1] concerns Escherichia coli. The assay is described as follows: microbe, parasite or virus in culture. As to conditions: ATCC 25922.
Description: Antibacterial activity against Escherichia coli ATCC 25922
For assay [2], the system named is Escherichia coli. Description: Inhibition of protein synthesis in Escherichia coli S30 extracts by coupled transcription-translation assay. The assay is classed as functional. The conditions noted are these: Escherichia coli.

≈ marks a conversion by molar mass, not a printed value.

In the assay on Escherichia coli [1], `N[C@@H]1C[C@H](N)CN(c2nc(Nc3cccc(NC(=O)c4cccc(O)c4O)c3)nc(N3C[C@H](N)C[C@H](N)C3)n2)C1` came in with an MIC of 8 µg/mL (≈ 14.6 µM). In addition, in the assay on Escherichia coli [2], the half-maximal inhibitory concentration (IC50) is 4 µM.

Molecule `N[C@@H]1C[C@H](N)CN(c2nc(Nc3ccc(C(=O)Nc4ccc5[nH]cnc5c4)c(O)c3)nc(N3C[C@H](N)C[C@H](N)C3)n2)C1` came in with an MIC with Escherichia coli [1] of 8 µg/mL (≈ 13.9 µM). Moreover, in the assay with Escherichia coli [2], it took 4 µM to reach half-maximal inhibition (IC50).

For the molecule `N[C@@H]1C[C@H](N)CN(c2nc(Nc3ccc(C(=O)N4CCc5cc(Br)ccc54)c(O)c3)nc(N3C[C@H](N)C[C@H](N)C3)n2)C1`, the MIC in the assay with Escherichia coli [1] came out at 2 µg/mL (≈ 3.13 µM). For the same molecule, it took 9 µM to reach half-maximal inhibition in the assay with Escherichia coli [2] (IC50).

`N[C@@H]1C[C@H](N)CN(c2nc(Nc3ccc4[nH]cnc4c3)nc(N3C[C@H](N)C[C@H](N)C3)n2)C1` registered an MIC in the assay with Escherichia coli [1] of 64 µg/mL (≈ 146 µM). The half-inhibitory concentration (IC50) in the assay with Escherichia coli [2] was determined as 14 µM.

As for `N[C@@H]1C[C@H](N)CN(c2nc(NC3CCNC3)nc(N3C[C@H](N)C[C@H](N)C3)n2)C1` (stereo partly drawn), the IC50 with Escherichia coli [2] turned out to be 36 µM.

In the assay on Escherichia coli [2], `N[C@@H]1C[C@H](N)CN(c2nc(Nc3ccncc3)nc(N3C[C@H](N)C[C@H](N)C3)n2)C1` registered an IC50 of 32 µM.

The molecule `N[C@@H]1C[C@H](N)CN(c2nc(N3C[C@H](N)C[C@H](N)C3)nc(N3CCc4cc(Br)ccc43)n2)C1` yielded an MIC with Escherichia coli [1] of 16 µg/mL (≈ 31.8 µM). The same molecule returned a half-maximal inhibitory concentration (IC50) in the assay on Escherichia coli [2] of 5 µM.

Take `N[C@@H]1C[C@H](N)CN(c2nc(NO)nc(N3C[C@H](N)C[C@H](N)C3)n2)C1`: the midpoint of inhibition with Escherichia coli [2], the IC50, lay at 45 µM. This counts as double-digit micromolar.

On to `Nc1nc(N2C[C@H](N)C[C@H](N)C2)nc(N2C[C@H](N)C[C@H](N)C2)n1`, for which the half-maximal inhibitory concentration (IC50) in the assay with Escherichia coli [2] came out at 92 µM.

In turn, `N[C@@H]1C[C@H](N)CN(c2nc(Nc3ccc(Cl)c(Cl)c3)nc(N3C[C@H](N)C[C@H](N)C3)n2)C1` returned an MIC in the assay with Escherichia coli [1] of 32 µg/mL (≈ 68.5 µM). In the assay with Escherichia coli [2], this molecule had an IC50 of 7 µM.

Molecule `N[C@@H]1C[C@H](N)CN(c2nc(N3CCNCC3)nc(N3C[C@H](N)C[C@H](N)C3)n2)C1` showed an IC50 with Escherichia coli [2] of 23 µM.

In turn, `N[C@@H]1C[C@H](N)CN(c2nc(Nc3ccc(-c4ccccc4)cc3)nc(N3C[C@H](N)C[C@H](N)C3)n2)C1` displayed an MIC in the assay on Escherichia coli [1] of 16 µg/mL (≈ 33.7 µM). The IC50 in the assay with Escherichia coli [2] was determined as 9 µM.

Take `CCN(CC)c1nc(N2C[C@H](N)C[C@H](N)C2)nc(N2C[C@H](N)C[C@H](N)C2)n1`: half-maximal inhibition in the assay on Escherichia coli [2] (IC50) was put at 180 µM.

`N[C@@H]1C[C@H](N)CN(c2nc(Nc3ccc(C(=O)Nc4ccc(Cl)c(Cl)c4)c(O)c3)nc(N3C[C@H](N)C[C@H](N)C3)n2)C1`: in the assay on Escherichia coli [1], the MIC turned out to be 2 µg/mL (≈ 3.32 µM). In the assay on Escherichia coli [2], this molecule yielded a half-inhibitory concentration (IC50) of 10 µM.

Molecule `Nc1ccc(Nc2nc(N3C[C@H](N)C[C@H](N)C3)nc(N3C[C@H](N)C[C@H](N)C3)n2)cc1` returned an IC50 in the assay on Escherichia coli [2] of 8 µM.

In turn, `CN(C)c1nc(N2C[C@H](N)C[C@H](N)C2)nc(N2C[C@H](N)C[C@H](N)C2)n1` displayed a half-maximal inhibitory concentration (IC50) in the assay with Escherichia coli [2] of 290 µM.

On to `N[C@@H]1C[C@H](N)CN(c2nc(NC3CCCCC3)nc(N3C[C@H](N)C[C@H](N)C3)n2)C1`, for which the IC50 with Escherichia coli [2] is 63 µM. This IC50 is about 4.6-fold lower than that of the molecule before.

Take `CNc1nc(N2C[C@H](N)C[C@H](N)C2)nc(N2C[C@H](N)C[C@H](N)C2)n1`: the IC50 in the assay on Escherichia coli [2] amounted to 62 µM.

For the molecule `N[C@@H]1C[C@H](N)CN(c2nc(Nc3ccon3)nc(N3C[C@H](N)C[C@H](N)C3)n2)C1`, the IC50 with Escherichia coli [2] is 9 µM.

Regarding `NNc1nc(N2C[C@H](N)C[C@H](N)C2)nc(N2C[C@H](N)C[C@H](N)C2)n1`, the concentration for half-maximal inhibition (IC50) in the assay on Escherichia coli [2] was 170 µM.

`N[C@@H]1C[C@H](N)CN(c2nc(Nc3ccc(NC(=O)c4cccc(O)c4O)cc3)nc(N3C[C@H](N)C[C@H](N)C3)n2)C1` registered an MIC against Escherichia coli [1] of 8 µg/mL (≈ 14.6 µM). This molecule also showed a concentration for half-maximal inhibition (IC50) in the assay on Escherichia coli [2] of 5 µM.

`N[C@@H]1C[C@H](N)CN(c2nc(Cl)nc(N3C[C@H](N)C[C@H](N)C3)n2)C1`: 42 µM corresponded to half-maximal inhibition in the assay with Escherichia coli [2] (IC50).

Regarding `NC[C@H]1O[C@H](O[C@H]2[C@H](O)[C@@H](O[C@H]3O[C@H](CO)[C@@H](O)[C@H](N)[C@H]3O)[C@H](N)C[C@@H]2N)[C@H](O)[C@@H](O)[C@@H]1O` [KANAMYCIN], it took 0.4 µM to reach half-maximal inhibition in the assay on Escherichia coli [2] (IC50).

`CN(C)[C@@H]1C(O)=C(C(N)=O)C(=O)[C@@]2(O)C(O)=C3C(=O)c4c(O)cccc4[C@@](C)(O)[C@H]3C[C@@H]12` [TETRACYCLINE] came in with an IC50 with Escherichia coli [2] of 2.8 µM.
